# Laboratory results reported in US8754066B2, “Phenoxy derivatives as sphingosine 1-phosphate (S1P) receptor modulators” (Allergan, Inc., priority 2012, dated 2014).
# Target: T1, human S1P1 receptor (Homo sapiens, UniProt P21453)
# T1 construct: expressed in transfected cells; host or cells: unnamed cells stably expressing the receptor; membranes used
# Assay: GTP γ35S binding assay for S1P1 activity
# Format: biochemical
# Conditions: activity potency from GTP γ35S binding; 5 μg membrane protein; test compounds 0.08 to 5,000 nM; 30 min at 25° C.
# Method: Compounds were synthesized and tested for S1P1 activity using the GTP γ^35S binding assay. These compounds may be assessed for their ability to activate or block activation of the human S1P1 receptor in cells stably expressing the […] receptor.
# GTP γ^35S binding was measured in the medium containing (mM) HEPES 25, pH 7.4, MgCl2 10, NaCl 100, dithitothreitol 0.5, digitonin 0.003%, 0.2 nM GTP γ^35S, and 5 μg membrane protein in a volume of 150 μl. Test compounds were included in the concentration range from 0.08 to 5,000 nM unless indicated otherwise. Membranes were incubated with 100 μM 5′-adenylylimmidodiphosphate for 30 min, and subsequently with 10 μM GDP for 10 min on ice. Drug solutions and membrane were mixed, and then reactions were initiated by adding GTP γ^35S and continued for 30 min at 25° C. Reaction mixtures were filtered over Whatman GF/B filters under vacuum, and washed three times with 3 mL of ice-cold buffer (HEPES 25, pH7.4, MgCl2 10 and NaCl 100). Filters were dried and mixed with scintillant, and counted for ^35S activity using a β-counter. Agonist-induced GTP γ^35S binding was obtained by subtracting that in the absence of agonist. Binding data were analyzed using a non-linear regression method. In case of antagonist assay, the reaction mixture contained 10 nM S1P in the presence of test antagonist at concentrations ranging from 0.08 to 5000 nM.
# Activity potency: S1P1 receptor from GTP γ^35S: nM, (EC50),
# T1 sequence (P21453 whole entry): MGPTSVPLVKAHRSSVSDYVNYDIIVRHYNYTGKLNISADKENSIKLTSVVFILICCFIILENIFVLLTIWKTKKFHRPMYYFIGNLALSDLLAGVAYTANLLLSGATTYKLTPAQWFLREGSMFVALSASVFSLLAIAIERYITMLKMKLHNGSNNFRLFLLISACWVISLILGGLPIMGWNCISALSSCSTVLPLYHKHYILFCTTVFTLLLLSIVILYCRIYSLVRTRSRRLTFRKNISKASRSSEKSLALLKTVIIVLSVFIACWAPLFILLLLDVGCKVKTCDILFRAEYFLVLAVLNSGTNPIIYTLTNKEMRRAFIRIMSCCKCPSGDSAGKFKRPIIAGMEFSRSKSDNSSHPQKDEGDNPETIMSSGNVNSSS
row,SMILES,EC50 [nM]
1,"Cc1ccc(CC(CCCOc2ccc(CNCCCP(=O)(O)O)cc2)c2cc(F)cc(F)c2)cc1C (centres unmarked) [Compound 9, {3-[(4-{[4-(3,5-difluorophenyl)-5-(3,4-dimethylphenyl)pentyl]oxy}benzyl)amino]propyl}phosphonic acid]",0.01
2,"Cc1ccc(CC(CCCOc2ccc(CNCCC(=O)O)cc2)c2ccsc2)cc1C (centres unmarked) [Compound 1, 3-[(4-{[5-(3,4-dimethylphenyl)-4-(3-thienyl)pentyl]oxy}benzyl)amino]propanoic acid]",14
3,"Cc1ccc(CC(CCCOc2ccc(CNCCC(=O)O)cc2)c2cccc(Cl)c2)cc1C (centres unmarked) [Compound 5, 3-[(4-{[4-(3-chlorophenyl)-5-(3,4-dimethylphenyl)pentyl]oxy}benzyl)amino]propanoic acid]",59.5
4,"Cc1ccc(CC(CCCOc2ccc(CNCCC(=O)O)cc2)c2cc(F)cc(F)c2)cc1C (centres unmarked) [Compound 4, 3-[(4-{[4-(3,5-difluorophenyl)-5-(3,4-dimethylphenyl)pentyl]oxy}benzyl)amino]propanoic acid]",17.8
5,"Cc1ccc(CC(CCCOc2ccc(CNCCC(=O)O)cc2)c2cccc(F)c2F)cc1C (centres unmarked) [Compound 2, 3-[(4-{[4-(2,3-difluorophenyl)-5-(3,4-dimethylphenyl)pentyl]oxy}benzyl)amino]propanoic acid]",0.85
6,"Cc1ccc(CC(CCOc2ccc(CNCCCP(=O)(O)O)cc2)c2cccc(Cl)c2)cc1C (centres unmarked) [Compound 11, [3-({4-[3-(3-chlorophenyl)-4-(3,4-dimethylphenyl)butoxy]benzyl}amino)propyl]phosphonic acid]",7.44
7,"Cc1ccc(CC(CCCCOc2ccc(CNCCC(=O)O)cc2)c2cccc(Cl)c2)cc1C (centres unmarked) [Compound 3, 3-[(4-{[5-(3-chlorophenyl)-6-(3,4-dimethylphenyl)hexyl]oxy}benzyl)amino]propanoic acid]",134
8,"Cc1ccc(CC(CCOc2ccc(CNCCC(=O)O)cc2)c2cccc(Cl)c2)cc1C (centres unmarked) [Compound 6, 3-({4-[3-(3-chlorophenyl)-4-(3,4-dimethylphenyl)butoxy]benzyl}amino)propanoic acid]",96.9
9,"Cc1ccc(CC(CCCOc2ccc(CNCCCP(=O)(O)O)cc2)c2cccc(Cl)c2)cc1C (centres unmarked) [Compound 10, {3-[(4-{[4-(3-chlorophenyl)-5-(3,4-dimethylphenyl)pentyl]oxy}benzyl)amino]propyl}phosphonic acid]",0.23
10,Cc1ccc(CC(CCCOc2ccc(CNCCCP(=O)(O)O)cc2)c2ccsc2)cc1C (centres unmarked) [Compound 7],2.08
11,"Cc1ccc(CC(CCCCOc2ccc(CNCCCP(=O)(O)O)cc2)c2cccc(Cl)c2)cc1C (centres unmarked) [Compound 8, {3-[(4-{[5-(3-chlorophenyl)-6-(3,4-dimethylphenyl)hexyl]oxy}benzyl)amino]propyl}phosphonic acid]",17.1
